Experimental data reported in EP4506005A1, “JAK-INHIBITOR FOR THE TREATMENT OF TEN, SJS AND SJS/TEN OVERLAP” (Max-Planck-Gesellschaft zur Förderung der Wissenschaften …, priority 2023, dated 2025).
“Also recorded” adds a separate entry of the source.

Columns and labels:
[1] = tested on: mouse model of TEN; assay: Smac mimetic TEN mouse model
[2] = tested on: DRESS; conditions: earlier report; cited from earlier work
[3] = cited from earlier work
[4] = tested on: primary keratinocytes; assay: Live-cell imaging co-culture assay of patient-derived keratinocytes with matched PBMCs
Description: Concurrently, patient-matched PBMCs were isolated and activated using CD3/28. After five days, the keratinocytes were fluorescently labeled and co-cultured with activated or resting PBMCs. A fluorescent DNA-binding dye was introduced to identify cells with compromised membrane integrity, in order to visualize, track and quantify the cytotoxic action of activated PBMCs towards keratinocytes using live-cell imaging.
PBMCs were isolated using Ficol according to standard protocol. Cells were frozen in liquid nitrogen until further usage.
Patient PBMCs (200'000 / well / 200 µl) were stimulated in U-shape 96-well plates in the presence or absence of CD3/28 (Gibco Dynabeads, #11161D) at a ratio of 1:1, in X-VIVO 15 (Lonza, #881026) for 5 days at 37 °C / 5% CO2. On day 4 of PBMC stimulation, hair-follicle derived keratinocytes from the same patient were plated on Collagen-I coated 96-well plates at a density of 5'000 - 10000 / well (depending on the proliferation rate, patient specific). On day 5 of PBMC stimulation, keratinocytes were fluorescently labeled (Celltracker Red; Invitrogen #C34552) according to the manufacturer's recommendation. Activated or non-activated ("resting") PBMCs were then added to the keratinocytes at a ratio of 1:1, after magnetic removal of CD3/28 beads where necessary. Tofacitinib (CST, #14703) or control (DMSO) was added in the indicated concentration as well as Celltox Green (Promega, G8731, 1:8000 final dilution) to reach a final volume of 200 µl per well. Every 2 hours images were acquired using a live cell analysis system (Incucyte Sx3, Sartorius) for 72 hours at 37 °C / 5% CO2. Quantification of dead keratinocytes (Celltox Green+ / Celltracker Red+) was performed using the proprietary analysis software (Incucyte, Sartorius).

Structure (SMILES): C[C@@H]1CCN(C(=O)CC#N)C[C@@H]1N(C)c1ncnc2[nH]ccc12 [Tofacitinib]
- clinical and histological disease severity ([1]; oral administration): ameliorated clinical and histological disease severity
- macroscopic disease severity (clinical assessment score: Nikolsky sign, edema, rubor) ([1]; oral gavage twice daily, Tofacitinib 30 mg/kg or Baricitinib 10 mg/kg, day 1 and 3 after s.c. smac mimetic injection): markedly reduced macroscopic disease severity
- therapeutic intervention in DRESS [2]: successful
- peak plasma concentrations achieved (time after administration) [3]: 30 to 60 min
- cell death ([4]; Tofacitinib in combination with resting (non-activated) PBMCs): no indications of increased cell death
- keratinocyte cytotoxicity ([4]; co-culture of primary keratinocytes with CD3/28 activated PBMCs from the same TEN patient, ratio 1:1, Tofacitinib 50 or 5 (nmol/nM), imaging every 2h for 72 hours, Celltox Green positive keratinocytes): reduced keratinocyte-directed cytotoxicity; also recorded: able to dampen the keratinocyte mediated cytotoxicity; also recorded: ameliorates T-cell mediated keratinocyte cytotoxicity; also recorded: dose-dependent inhibition of keratinocyte cytotoxicity
- keratinocyte cell death ([4]; keratinocytes exposed to Tofacitinib alone): did not induce keratinocyte cell death
